Reference: PubChem BioAssay (NCI)
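Step 1: Grow cells in 96-well plates. Step 2: Expose to compound for 48 hours at 5 concentrations. Step 3: Interpolate endpoints linearly; if unreached, use highest concentration. GI50 = concentration required for 50% inhibition of growth. At the TGI there is no net growth.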

Tests used:
Experiment in all cases: DTP human tumour cell line panel, 48 h
[1] = system: SN12C renal
[2] = system: HOP-92 NSCLC
[3] = system: SK-MEL-5 melanoma
[4] = system: COLO 205 colon
[5] = system: HOP-62 NSCLC
[6] = system: MALME-3M melanoma
[7] = system: NCI-H460 lung
[8] = system: UACC-62 melanoma
[9] = system: SK-OV-3 ovarian
[10] = system: LOX IMVI melanoma
[11] = system: SF-539 CNS
[12] = system: M19-MEL melanoma
[13] = system: UACC-257 melanoma
[14] = system: SF-268 CNS
[15] = system: HL-60(TB) leukemia
[16] = system: OVCAR-3 ovarian
[17] = system: MOLT-4 leukemia
[18] = system: XF 498 CNS
[19] = system: NCI-H23 lung
[20] = system: RPMI-8226 leukemia
[21] = system: LXFL 529 NSCLC
[22] = system: SF-295 CNS
[23] = system: SK-MEL-28 melanoma
[24] = system: HOP-18 NSCLC
[25] = system: HCT-116 colon
[26] = system: DMS 273 small cell lung
[27] = system: RXF 393 renal
[28] = system: NCI-H522 lung
[29] = system: KM20L2 colon
[30] = system: UO-31 renal
[31] = system: 786-0 renal
[32] = system: IGROV1 ovarian
[33] = system: HCC-2998 colon
[34] = system: SNB-19 CNS
[35] = system: ACHN renal
[36] = system: HCT-15 colon
[37] = system: A549 NSCLC
[38] = system: CCRF-CEM leukemia
[39] = system: DMS 114 small cell lung
[40] = system: EKVX NSCLC
[41] = system: U251 CNS
[42] = system: OVCAR-8 ovarian
[43] = system: SNB-78 CNS
[44] = system: OVCAR-5 ovarian
[45] = system: SR leukemia
[46] = system: SK-MEL-2 melanoma
[47] = system: K-562 leukemia
[48] = system: TK-10 renal
[49] = system: SW-620 colon
[50] = system: KM12 colon
[51] = system: DLD-1 colon
[52] = system: M14 melanoma
[53] = system: CAKI-1 renal
[54] = system: A498 renal
[55] = system: SNB-75 CNS
[56] = system: NCI-H226 lung
[57] = system: HT29 colon
[58] = system: OVCAR-4 ovarian

## O=C1c2ccccc2S[C@@H](O)[C@@H]2CCCN12
[1]
  TGI: > 100 µM
[2]
  TGI: > 100 µM
[3]
  TGI: > 100 µM
[4]
  TGI: > 100 µM
[5]
  TGI: > 100 µM
[6]
  TGI: > 100 µM
[7]
  TGI: > 100 µM
[8]
  TGI: > 100 µM
[9]
  TGI: > 100 µM
[10]
  TGI: > 100 µM
[11]
  TGI: > 100 µM
[12]
  TGI: > 100 µM
[13]
  TGI: > 100 µM
[14]
  TGI: > 100 µM
[15]
  TGI: > 100 µM
[16]
  TGI: > 100 µM
[17]
  TGI: > 100 µM
[18]
  TGI: > 100 µM
[19]
  TGI: > 100 µM
[20]
  TGI: > 100 µM
[21]
  TGI: > 100 µM
[22]
  TGI: > 100 µM
[23]
  TGI: > 100 µM
[24]
  TGI: > 100 µM
[25]
  TGI: > 100 µM
[26]
  TGI: > 100 µM
[27]
  TGI: > 100 µM
[28]
  TGI: > 100 µM
[29]
  TGI: > 100 µM
[30]
  TGI: > 100 µM
[31]
  TGI: > 100 µM
[32]
  TGI: 87.9 µM
[33]
  TGI: > 100 µM
[34]
  TGI: > 100 µM
[35]
  TGI: > 100 µM
[36]
  TGI: > 100 µM
[37]
  TGI: > 100 µM
[38]
  TGI: > 100 µM
[39]
  TGI: > 100 µM
[40]
  TGI: > 100 µM
[41]
  TGI: > 100 µM
[42]
  TGI: > 100 µM
[43]
  TGI: > 100 µM
[44]
  TGI: > 100 µM
[45]
  TGI: > 100 µM
[46]
  TGI: > 100 µM
[47]
  TGI: > 100 µM
[48]
  TGI: > 100 µM
[49]
  TGI: > 100 µM
[50]
  TGI: > 100 µM
[51]
  TGI: > 100 µM
[52]
  TGI: > 100 µM

## CSc1nc(NC2OC(COC(C)=O)C(OC(C)=O)C(OC(C)=O)C2OC(C)=O)c2c(OC(C)=O)c(C)c(=O)oc2n1 (stereo not given)
[1]
  TGI: > 100 µM
[2]
  TGI: > 100 µM
[3]
  TGI: > 100 µM
[4]
  TGI: > 100 µM
[5]
  TGI: > 100 µM
[6]
  TGI: > 100 µM
[7]
  TGI: > 100 µM
[8]
  TGI: > 100 µM
[9]
  TGI: > 100 µM
[10]
  TGI: > 100 µM
[11]
  TGI: > 100 µM
[12]
  TGI: > 100 µM
[13]
  TGI: > 100 µM
[15]
  TGI: > 100 µM
[16]
  TGI: > 100 µM
[17]
  TGI: > 100 µM
[18]
  TGI: > 100 µM
[53]
  TGI: > 100 µM
[19]
  TGI: > 100 µM
[20]
  TGI: > 100 µM
[21]
  TGI: > 100 µM
[22]
  TGI: > 100 µM
[24]
  TGI: > 100 µM
[25]
  TGI: > 100 µM
[54]
  TGI: > 100 µM
[27]
  TGI: > 100 µM
[29]
  TGI: > 100 µM
[55]
  TGI: > 100 µM
[30]
  TGI: > 100 µM
[31]
  TGI: > 100 µM
[32]
  TGI: > 100 µM
[33]
  TGI: > 100 µM
[34]
  TGI: > 100 µM
[35]
  TGI: > 100 µM
[36]
  TGI: > 100 µM
[37]
  TGI: > 100 µM
[38]
  TGI: > 100 µM
[39]
  TGI: > 100 µM
[40]
  TGI: > 100 µM
[56]
  TGI: > 100 µM
[41]
  TGI: > 100 µM
[57]
  TGI: > 100 µM
[42]
  TGI: > 100 µM
[43]
  TGI: > 100 µM
[44]
  TGI: > 100 µM
[46]
  TGI: > 100 µM
[47]
  TGI: > 100 µM
[48]
  TGI: > 100 µM
[49]
  TGI: > 100 µM
[58]
  TGI: > 100 µM
[50]
  TGI: > 100 µM
[51]
  TGI: > 100 µM
[52]
  TGI: > 100 µM

## N#[O+].O=S(=O)([O-])[O-].[NH2-].[NH2-].[NH2-].[NH2-].[NH2-].[Ru+5]
[1]
  TGI: > 100 µM
[2]
  TGI: > 100 µM
[3]
  TGI: > 100 µM
[4]
  TGI: > 100 µM
[6]
  TGI: 27.7 µM
[7]
  TGI: > 100 µM
[8]
  TGI: > 100 µM
[9]
  TGI: > 100 µM
[10]
  TGI: > 100 µM
[11]
  TGI: > 100 µM
[13]
  TGI: > 100 µM
[14]
  TGI: > 100 µM
[15]
  TGI: > 100 µM
[16]
  TGI: > 100 µM
[17]
  TGI: > 100 µM
[53]
  TGI: > 100 µM
[19]
  TGI: > 100 µM
[21]
  GI50: > 100 µM
  TGI: > 100 µM
[22]
  TGI: > 100 µM
[23]
  TGI: > 100 µM
[25]
  TGI: > 100 µM
[54]
  TGI: > 100 µM
[27]
  TGI: > 100 µM
[28]
  TGI: > 100 µM
[29]
  TGI: > 100 µM
[55]
  TGI: > 100 µM
[31]
  TGI: > 100 µM
[32]
  TGI: > 100 µM
[33]
  TGI: > 100 µM
[35]
  TGI: > 100 µM
[36]
  TGI: > 100 µM
[37]
  TGI: > 100 µM
[38]
  TGI: > 100 µM
[40]
  TGI: > 100 µM
[56]
  TGI: > 100 µM
[41]
  TGI: > 100 µM
[57]
  TGI: > 100 µM
[42]
  TGI: > 100 µM
[43]
  TGI: > 100 µM
[44]
  TGI: > 100 µM
[45]
  TGI: > 100 µM
[46]
  TGI: > 100 µM
[48]
  TGI: > 100 µM
[49]
  TGI: > 100 µM
[50]
  TGI: > 100 µM
[51]
  TGI: > 100 µM

## Cc1cccc(C(C)(C)C)c1NC(=O)CCc1n[nH]c(=S)o1
[1]
  TGI: > 100 µM
[2]
  TGI: > 100 µM
[3]
  TGI: > 100 µM
[4]
  TGI: 47.6 µM
[5]
  TGI: > 100 µM
[6]
  TGI: > 100 µM
[7]
  TGI: > 100 µM
[8]
  TGI: > 100 µM
[9]
  TGI: > 100 µM
[11]
  TGI: > 100 µM
[12]
  TGI: > 100 µM
[13]
  TGI: > 100 µM
[14]
  TGI: > 100 µM
[15]
  TGI: > 100 µM
[16]
  TGI: > 100 µM
[17]
  TGI: > 100 µM
[53]
  TGI: > 100 µM
[19]
  TGI: > 100 µM
[20]
  TGI: 51.6 µM
[21]
  TGI: > 100 µM
[22]
  TGI: > 100 µM
[23]
  TGI: > 100 µM
[24]
  TGI: > 100 µM
[25]
  TGI: 33.9 µM
[26]
  TGI: > 100 µM
[54]
  TGI: > 100 µM
[28]
  TGI: > 100 µM
[29]
  TGI: > 100 µM
[55]
  TGI: > 100 µM
[30]
  TGI: > 100 µM
[31]
  TGI: > 100 µM
[32]
  TGI: > 100 µM
[33]
  TGI: > 100 µM
[34]
  TGI: > 100 µM
[35]
  TGI: > 100 µM
[36]
  TGI: 49 µM
[37]
  TGI: > 100 µM
[38]
  TGI: > 100 µM
[39]
  TGI: > 100 µM
[40]
  TGI: > 100 µM
[56]
  TGI: 0.832 µM
[41]
  TGI: > 100 µM
[57]
  TGI: > 100 µM
[42]
  TGI: > 100 µM
[43]
  TGI: > 100 µM
[44]
  TGI: > 100 µM
[47]
  TGI: > 100 µM
[48]
  TGI: > 100 µM
[49]
  TGI: 34.1 µM
[58]
  TGI: > 100 µM
[50]
  TGI: > 100 µM
[51]
  TGI: > 100 µM
[52]
  TGI: > 100 µM
